# Marks after values point to notes of the source that are not given here.
# Key:
# [1] = test system: Trichophyton mentagrophytes SM-110 strain; experiment: Evaluation of drug effect on tinea unguium, guinea pig model, present evaluation method; assay type: in vivo; settings: two days after last treatment, 30 consecutive days, topical 1% solution 0.1 ml or oral 40 mg/kg; for The number of feet with fungus-negative nail/Total number of infected feet: detection limit 10 CFU/feet
# Experimental: A fungal solution was prepared in the same manner as in the pretreatment of Comparative Example 1 except for changing Trichophyton mentagrophytes KD-04 strain to Trichophyton mentagrophytes SM-110 strain.
# A guinea pig model of tinea unguium and tinea pedis was prepared in the same manner as in the above-mentioned preparation of the guinea pig model in interdigital tinea pedis except for changing male Hartley strain guinea pigs of 7 weeks age to male Hartley strain guinea pigs of 5 weeks age and except that the paper disc and the bandage was removed 21 days after the infection changing from seven days after the infection. The invasion of dermatophytes in plantar skin and nail plate was observed 60 days after the infection.
# As test compounds, solutions were prepared by dissolving raw powders of KP-103, amorolfine and terbinafine in a concentration of 1% thereof to mixture solution of polyethylene grycole #400: ethanol (75:25 v/v), respectively. Capsule of terbinafine was prepared by crushing the marketed tablet, suspending in the concentration of 100 mg/ml into Miglyol 812 (available from Mitsuba trade Co., Ltd)with glass homogenizer uniformity, and injecting the resulting suspension into each capsule in the concentration of 40 mg/kg depending on body weight measured on administration day. A solution of KP-103, amorolfine or terbinafine in the amount of 0.1 ml was applied a plantar skin and nail of one foot once a day for 30 consecutive days. In case of terbinafine capsule, one capsule (40 mg/kg) was administered orally.
# Animals were sacrificed two days after the last treatment. One hind foot was excised and wiped sufficiently with the cotton sweb containing alcohol. Nails (three in total) of one hind foot was excised and miced by a scissors. It was transferred into glass homogenizer and was homogenized adding 4 ml double-concentration phosphate buffered saline (Phosphate Buffered Salts, available from Takara Shuzo Co., Ltd.) containing 4% of trypsin derived from pig pancreas (available from BIOZYME Laboratories Limited). The reaction was carried out with shaking at 37° C. for one hour. After a centrifugation, the obtaining precipitate was washed three times by centrifuging with phosphate buffered saline in order to remove trypsin. The precipitate was suspended with 4 ml of distilled water and put into dialysis membrane (fractional molecular weight: 12,000–14,000, made of cellulose, available from VISKASE SALES Corporation). Dialysis was carried out into 3 L of distilled water at 4° C. for 14 days. Dialysis water was replaced twice a day 28 times in total. After a centrifugation, 1 ml of phosphate buffered saline was added to the precipitate obtained by removing the supernatant to prepare a suspension. This suspension was defined as stock solution and was diluted by tenfold. To Sabouraud dextrose agar medium (20 ml) containing the antibiotic substance described in Comparative Example 1 were added 100 μl of the stock solution or the dilution. […] The number of fungus-negative feet in the nail was counted. When the colony was appeared on the medium, the number of colonies (CFU) was counted to calculate the number of colonies in the nail of one foot by the dilution rate. After Kruskal Wallis Test was carried out for the number of fungi in the nail, the multiple comparison was carried out based on Tukey method to analysis the significant difference between groups. Those results were shown in FIG. 3 and Table 3 thereof was made. In FIG. 3, the number of CFU in nails in each treated group was plotted and the mean number of CFU was shown by horizontal line and numerical value.
# Using the above-mentioned suspension, sufficient removal of the remaining drug was determined by the present evaluation method in the same manner as in Example 2.
# [2] = test system: Trichophyton mentagrophytes SM-110 strain; experiment: Evaluation of drug effect on tinea pedis, guinea pig model, present evaluation method; assay type: in vivo; settings: two days after last treatment; 30 consecutive days; topical 1% solution 0.1 ml or oral 40 mg/kg; detection limit 20 CFU/feet
# Experimental: A fungal solution was prepared in the same manner as in the pretreatment of Comparative Example 1 except for changing Trichophyton mentagrophytes KD-04 strain to Trichophyton mentagrophytes SM-110 strain. A guinea pig model of tinea unguium and tinea pedis was prepared in the same manner as in the above-mentioned preparation of the guinea pig model in interdigital tinea pedis except for changing male Hartley strain guinea pigs of 7 weeks age to male Hartley strain guinea pigs of 5 weeks age and except that the paper disc and the bandage was removed 21 days after the infection changing from seven days after the infection. The invasion of dermatophytes in plantar skin and nail plate was observed 60 days after the infection. As test compounds, solutions were prepared by dissolving raw powders of KP-103, amorolfine and terbinafine in a concentration of 1% thereof to mixture solution of polyethylene grycole #400: ethanol (75:25 v/v), respectively. Capsule of terbinafine was prepared by crushing the marketed tablet, suspending in the concentration of 100 mg/ml into Miglyol 812 (available from Mitsuba trade Co., Ltd)with glass homogenizer uniformity, and injecting the resulting suspension into each capsule in the concentration of 40 mg/kg depending on body weight measured on administration day. A solution of KP-103, amorolfine or terbinafine in the amount of 0.1 ml was applied a plantar skin and nail of one foot once a day for 30 consecutive days. In case of terbinafine capsule, one capsule (40 mg/kg) was administered orally. Skin pieces of hind feet were excised from each animal described in Example 4. A removal of the drug and a determination of the remaining drug were carried out in the same as in Example 2 except that dialysis for removing the drug carried out for 3 days and that dialysis water was changed six times in total. The sufficient removal of the remaining drug was confirmed. Then the drug effect was evaluated in the same manner as in Example 4 (detection limit: 20 CFU/feet). Those results were shown in FIG. 4 and Table 4 thereof was made. In FIG. 4, the number of CFU in the skin in each treated group was plotted and the mean number of CFU was shown by horizontal line and numerical value.
# [3] = test system: Trichophyton mentagrophytes KD-04 strain; experiment: Conventional method for evaluating drug effect, guinea pig model of interdigital type of tinea pedis; assay type: in vivo; settings: for The number of fungus-negative feet/Total number of infected feet: 1% solution 0.1 ml topical once a day for 10 days, lanoconazole as marketed Astat solution; for The number of fungus-negative feet/Total number of infected feet, Conventional Method: five days after the last treatment, left feet, 1% solutions in PEG #400:ethanol vehicle
# Experimental: (§1) Millipore Filter (made by Millipore Corporation, HA, diameter 47 mm, 0.45 μm) was placed on Brain-Heart-infusion agar medium (available from Nissui Pharmaceutical Co., LTD.), and 10^6 cells of microcondium of Trichophyton mentagrophytes KD-04 strain were applied thereon. The cultivation was carried out at 30° C. under 17% of CO2 for 7 days. After the cultivation, just amount of physiological saline containing 0.05% of Tween 80 was dropped on the filter and arthroconidia were collected using a platinum loop. After a hyphal mass was removed by a filtration with a sterile gauze, the number of arthroconidia in the filtrate was calculated by hemocytometer to adjust in concentration of 1×10^8 arthroconidia/ml to obtain a fungal inocula.
# (§2) A guinea pig model of interdigital type of tinea pedis was prepared according to the method of Arika et al (Antimicrobial Agents and Chemotherapy, 36: 2523–2525, 1992). Concretely, in two hind foots of male Hartley strain guinea pigs of 7 weeks age, the interdigital skin was lightly abraded with sandpaper. A paper disc (AAdisc available from Whatmen International Ltd cut in 8×4 mm) moisten with the above-mentioned solution of the inoculated organism was applied onto the region between the interdigital toes of the hind feet and fixed using Self-adhering-Foam Pad (Restone 1560M; available from 3M) and adhesive stretch bandage (ELASTPORE; available from Nichiban Co., Ltd). The paper disc and the bandage were removed seven days after of the infection.
# (§3) A marketed 1% lanoconazole solution (commercial name: Astat (trade name) solution) and a solution in which KP-103 was solved in a concentration of 1% in polyethylene grycole #400: ethanol (75:25 v/v) mixture were used as test substance. Each solution in amount of 0.1 ml was applied to the plantar skin once a day from 10 days after the infection for 10 days.
# The conventional method was described as follows. For the infected control group without an application of the drug, the KP-103-treated group and the lanoconazole-treated group, 10 guinea pigs (hereinafter referred to “animal”) were employed, respectively. Animals of each group were sacrificed two days after and 30 days after the last treatment. Their two hind feet were excised and wiped with the cotton sweb containing alcohol sufficiently. A skin of whole sole was excised and cut into 15 skin pieces in total including 12 skin pieces from plantar parts and 3 skin pieces from an interdigital part. Each skin pieces were placed on 20 ml of Sabouraud dextrose agar medium (available from Difco laboratories) containing 50 μg of chloramphenicol (available from Wako Pure Chemical Industries, Ltd.), 100 μg of gentamicin (available from Schering-Plough Corporation), 50 μg of 5-fluorocytosine (available from Wako Pure Chemical Industries, Ltd.) and 1 mg of cycloheximide (available from nacalai tesque, Inc.) per ml. An antibiotic substance added to the medium was set to a condition which enable bacteria not to grow and which enable fungi to grow without problem. […] In the evaluation of the effect 30 days after last treatment, two days after the last treatment the treated feet were wiped with a cotton swab containing alcohol and fixed with the bandage in order to prevent a reinfection. The bandage was changed once a week.
# A model was prepared according to Comparative Example 1. Lanoconazole being a test compound was used for a therapeutic experience as 1% solution with the same vehicle as KP-103. For the infected control group without an application of a drug, the KP-103-treated group and the lanoconazole-treated group, 20 animals were employed, respectively. The two hind feet were excised from each animal five days after the last treatment in the same manner as in Comparative Example 1. A total of 20 light feet were used for an evaluation by the conventional method, and a total of 20 right feet were used in the present evaluation method. […]
# [4] = test system: Trichophyton mentagrophytes KD-04 strain; experiment: Present evaluation method (drug removed by dialysis, viable fungus detected), guinea pig model of interdigital tinea pedis; assay type: in vivo; settings: five days after the last treatment; for The number of fungus-negative feet/Total number of infected feet, Present evaluation method: right feet, drug removed by dialysis, detection limit 10 CFU/feet
# Experimental: as §1, §2, §3
# A model was prepared according to Comparative Example 1. Lanoconazole being a test compound was used for a therapeutic experience as 1% solution with the same vehicle as KP-103. […]
# [5] = test system: Trichophyton; experiment: In vitro antifungal activity against dermatophytes; assay type: cell-based
# [6] = test system: fungus; settings: 20 feet, cited from earlier work
# [7] = 30 days after the last treatment
# [8] = two days after the last treatment
Structure (SMILES),Mean number of fungal cells in the nail (Log CFU ± SD) [1],The number of feet with fungus-negative nail/Total number of infected feet [1],Mean number of fungal cells in the skin (Log CFU ± SD) [2],The number of feet with fungus-negative skin/Total number of infected feet [2],"The number of fungus-negative feet/Total number of infected feet [3, 7]","The number of fungus-negative feet/Total number of infected feet, Conventional Method [3]","The number of fungus-negative feet/Total number of infected feet [3, 8]",rate of a fungus-negative foot evaluated by the present evaluation method [4],"The number of fungus-negative feet/Total number of infected feet, Present evaluation method [4]",growth inhibitory concentration against Trichophyton [5],in vitro activity against Trichophyton relative to KP-103 [5],fungus-negative feet ([6]; 2 days after the last treatment),"feet with relapse [6, 7]"
"CN(C/C=C/C#CC(C)(C)C)Cc1cccc2ccccc12 [Terbinafine solution, terbinafine]",3.21 ± 0.47 Log CFU,0/10,<1.3** Log CFU,10/10**,–,–,–,–,–,–,–,–,–
"C=C1CCN([C@H](C)[C@](O)(Cn2cncn2)c2ccc(F)cc2F)CC1 [KP-103, (2R,3R)-2-(2,4-difluorophenyl)-3-(4-methylenepiperidine-1-yl)-1-(1H-1,2,4-triazole-1-yl)butane-2-ol]",2.20 ± 0.56 Log CFU,0/10,<1.3** Log CFU,10/10**,16/20,19/20,20/20,85%,17/20,–,–,–,–
"N#C/C(=C1/SCC(c2ccccc2Cl)S1)n1ccnc1 (stereo not shown) [Lanoconazole, lanoconazole]",–,–,–,–,9/20,20/20,20/20,–,3/20,15.6 ng/mL,eight-fold more active than KP-103,all feet out of 20 feet,11 out of 20
"CCC(C)(C)c1ccc(CC(C)CN2C[C@@H](C)O[C@@H](C)C2)cc1 (stereo partly shown) [Amorolfine solution, amorolfine]",3.26 ± 0.54 Log CFU,0/10,1.74 ± 0.45 Log CFU,4/10,–,–,–,–,–,–,–,–,–
